Patent US9492377B2, “Effervescent composition in solid form for use in vaginal applications for the treatment of vaginal infections” (PROBIOTICAL S.P.A., priority 2011, dated 2016)

Test system: microorganisms

Q: With O=C(O)CCCCC(=O)O [Adipic acid] as the compound, how does the “portion of the total mortality observed accounted for by the toxicity” value read?
A: about 60%

Q: And the “toxicity (mortality) on its own” value (pH 4.24)?
A: 45.8%
